According to doi:10.1101/2024.03.13.583470v1, “SARS-CoV-2 methyltransferase nsp10-16 in complex with natural and drug-like purine analogs for guiding structure-based drug discovery” (biorxiv, 2024):

Molecular target: T1, nsp10-16 (Severe acute respiratory syndrome coronavirus 2, UniProt P0DTD1)
T1 construct: gene rep
Test: X-ray crystallography, soaking
Format: binding
Conditions: SAM site, fully replaces SAM; 10 mM soak, pH 6.5

| Compound | X-ray crystallography, soaking |
| --- | --- |
| Nc1ncnc2c1c(I)cn2[C@@H]1O[C@H](CO)[C@@H](O)[C@H]1O [5-iodotubercidin] | toyocamycin, sangivamycin and 5-iodotubercidin share the same orientation as tubercidin |
| N#Cc1cn([C@@H]2O[C@H](CO)[C@@H](O)[C@H]2O)c2ncnc(N)c12 [toyocamycin] | toyocamycin, sangivamycin and 5-iodotubercidin share the same orientation as tubercidin |
